Test results reported in patent US11332470B2, “CXCR4 inhibitors and uses thereof” (X4 Pharmaceuticals, Inc., priority 2016, dated 2022).
Where two headings read alike, the source gives them in different places.

How the values were obtained:
[1] = molecular target: T1, CXCR4 (Jurkat cells expressing CXCR4) (Homo sapiens, UniProt P61073); assay: Chemokine (CXCL12-AF647) binding inhibition assay; conditions: CXCL12-AF647 25 ng/mL, read-out: IC50 CXCL-12 binding Jurkat
T1 construct: Jurkat cells expressing CXCR4; endogenous in cells; host or cells: Jurkat
Summary of the method: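 Cells in HBSS, 20 mM HEPES, 0.2% BSA, pH 7.4, preincubated 15 min at room temperature with compound, then 25 ng/mL CXCL12-AF647 for 30 min. After washing and paraformaldehyde fixation, bound ligand read by flow cytometry; percent inhibition calculated from MFI relative to unlabeled and ligand-only controls.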

[2] = Mouse brain uptake assay (pharmacokinetics and brain penetration after IV administration); format: in vivo, Male CD1 Mice; conditions: male, 3 mg/kg IV; for Kp / Kp uu: CD1, brain and plasma; for Kp / Kp uu / clearance / half-life: mouse; for Kp uu: read-out: Kp, uu (unbound brain/unbound plasma drug concentration ratio); for clearance / half-life: CD1, plasma; for clearance: read-out: Cl (Clearance) (converted); for half-life: read-out: t½ (half life) (converted); for AUC(0-t): CD1
Protocol: Example 15: Pharmacokinetics and Brain Penetration Experiment to Determine Brain and Plasma Concentrations of Compounds after IV Administration to Male CD1 Mice or Male SD Rats
The study design (9 animals) consisted of administrating the drug (IV: 3 mg/kg (5 mL/kg) via tail vein injection) and collecting samples at terminal bleeding for plasma and brain at 0.083, 0.5 and 1 h. The blood collection was performed as follows: the animal was restrained manually and approximately 150 μL blood/time point was collected into a dipotassium EDTA tube via retro orbital puncture under anesthesia with isoflurane. The blood sample was put on ice and centrifuged to obtain a plasma sample (2000 g, 5 min under 4° C.) within 15 minutes. The brain collection was performed as follows: a mid-line incision was made in the animal's scalp and the skin was retracted. Using small bone cutters and rongeurs, the skull overlying the brain was removed. The brain was removed using a spatula and the brain rinsed with cold saline. The brain was placed in screw-top tubes, and the tubes were stored at −70° C. until analysis. The IV dosing solution was prepared in 50 mM citrate buffer (pH 4.0) at 0.6 mg/mL.
Plasma Sample Preparation:
An aliquot of 30 μL sample was added to […] containing 50 ng/mL IS (Dexamethasone). The mixture was vortexed for 5 min and centrifuged at 14,000 rpm for 5 min. An aliquot of 5 μL supernatant was injected for LC-MS/MS analysis.
Brain Sample Preparation:
An aliquot of 30 μL brain homogenate (brain:PBS=1:3, w/v) sample was added to 150 μL IS in MeCN (Dexamethasone, 50 ng/mL). The mixture was vortexed for 5 min and centrifuged at 14,000 rpm for 5 min. An aliquot of 5 μL supernatant was injected for LC-MS/MS analysis.
The sample analysis was performed on LCMS/MS-003 (API4000, triple quadruple) under the following conditions: positive ion, ESI, MRM detection using dexamethasone as internal standard. HPLC conditions: mobile phase A: H2O (0.025% formic acid (FA) with 1 mM NH4OAc); mobile phase B: MeOH (0.025% FA with 1 mM NH4OAc) on Waters X-Bridge C18 (2.1×50 mm, 2.5 μm) column at 60° C.
A similar experiment was performed with 4 time points taken from 0-24 h.

[3] = 0-1 h, 3 time points, read-out: Kp (brain/plasma drug concentration ratio, AUC last(b)/AUC last(p))
[4] = mouse brain, time zero to 1 hr, 3 time points, read-out: AUClast (b) (area under the brain drug concentration-time curve)
[5] = mouse plasma, time zero to 1 hr, 3 time points, read-out: AUClast (p) (area under the plasma drug concentration-time curve)
[6] = 0-24 h, 4 time points, read-out: Kp (brain/plasma drug concentration ratio)
[7] = mouse brain, 0-24 h, 4 time points, read-out: AUClast (b) (area under the brain drug concentration-time curve)
[8] = mouse plasma, 0-24 h, 4 time points, read-out: AUClast (p) (area under the plasma drug concentration-time curve)

T1 sequence (P61073 whole entry): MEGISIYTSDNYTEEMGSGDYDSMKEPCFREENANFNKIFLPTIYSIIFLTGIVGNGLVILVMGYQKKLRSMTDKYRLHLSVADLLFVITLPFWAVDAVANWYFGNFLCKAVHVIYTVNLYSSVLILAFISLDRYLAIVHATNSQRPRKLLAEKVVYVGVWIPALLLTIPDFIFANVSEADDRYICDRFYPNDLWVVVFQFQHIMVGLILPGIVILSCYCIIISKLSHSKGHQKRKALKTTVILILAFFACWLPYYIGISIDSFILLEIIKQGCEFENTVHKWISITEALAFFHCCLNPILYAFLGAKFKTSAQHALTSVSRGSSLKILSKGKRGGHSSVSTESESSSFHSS

| SMILES | IC50 [1] [nM] | Kp [2, 3] | Kp uu ([2]; 0-1 h, 3 time points) | clearance ([2]; 0-1 h, 3 time points) [mL/min/kg] | half-life ([2]; 0-1 h, 3 time points) [h] | AUC(0-t) [2, 4] [ng·h/mL] | AUC(0-t) [2, 5] [ng·h/mL] | Kp [2, 6] | Kp uu ([2]; 0-24 h, 4 time points) | clearance ([2]; 0-24 h, 4 time points) [mL/min/kg] | half-life ([2]; 0-24 h, 4 time points) [h] | AUC(0-t) [2, 7] [ng·h/mL] | AUC(0-t) [2, 8] [ng·h/mL] |
| --- | --- | --- | --- | --- | --- | --- | --- | --- | --- | --- | --- | --- | --- |
| CN1CCN(c2cccc3[nH]c(CN4CCCC4c4ncccc4Cl)nc23)CC1 (stereo not drawn) [Compound I-26] | 0.01 to 100 | 1.86 | 1.11 | 140 | 0.269 | 742 | 400 |  |  |  |  |  |  |
| Cc1cccnc1C1CCCN1Cc1cn2c(N3CCN(C)C4(CC4)C3)cccc2n1 (stereo not drawn) [Compound I-29] | 100 to 1000 |  |  |  |  |  |  | 0.53 | 0.07 | 66.8 | 4.29 | 394 | 737 |
| Cc1cccnc1C1CCCN1Cc1nc2cccc(N3CCN(C4CC4)CC3)c2[nH]1 (stereo not drawn) [Compound I-31] | 0.01 to 100 |  |  |  |  |  |  | 37.2 | 5.95 | 235 | 0.275 | 7260 | 195 |
| CN1CCN(c2c(CN3CCCC3c3ccccn3)nc3ccccn23)CC1 (stereo not drawn) [Compound I-41] | 0.01 to 100 | 0.77 | 0.22 | 33.2 | 5.33 | 210 | 271 |  |  |  |  |  |  |
| CN1CCN(c2c(CN3CCCC3c3ccccn3)nc3ccc(F)cn23)CC1 (stereo not drawn) [Compound I-63] | 0.01 to 100 | 1.21 | 0.48 | 25.5 | 3.87 | 518 | 427 |  |  |  |  |  |  |
| CN1CCN(c2c(CN3CCCC3c3nccs3)nc3ccccn23)CC1 (stereo not drawn) [Compound I-70] | 0.01 to 100 | 1.41 | 1.99 | 25 | 3.64 | 736 | 523 |  |  |  |  |  |  |
